According to patent US20170052170A1, “NOVEL CELL LINES AND METHODS” (priority 2009, published 2017):

Biological target: T1, sweet taste receptor (T1R2, T1R3 endogenous) (Homo sapiens, UniProt Q7RTX0+Q8TE23)
T1 construct: endogenous in cells; host or cells: HuTu (ATCC HTB-40), H716 (ATCC CCL-251), HEK 293T (ATCC CRL-11268); some with prior UV treatment
T1 sequence (Q8TE23 20-839): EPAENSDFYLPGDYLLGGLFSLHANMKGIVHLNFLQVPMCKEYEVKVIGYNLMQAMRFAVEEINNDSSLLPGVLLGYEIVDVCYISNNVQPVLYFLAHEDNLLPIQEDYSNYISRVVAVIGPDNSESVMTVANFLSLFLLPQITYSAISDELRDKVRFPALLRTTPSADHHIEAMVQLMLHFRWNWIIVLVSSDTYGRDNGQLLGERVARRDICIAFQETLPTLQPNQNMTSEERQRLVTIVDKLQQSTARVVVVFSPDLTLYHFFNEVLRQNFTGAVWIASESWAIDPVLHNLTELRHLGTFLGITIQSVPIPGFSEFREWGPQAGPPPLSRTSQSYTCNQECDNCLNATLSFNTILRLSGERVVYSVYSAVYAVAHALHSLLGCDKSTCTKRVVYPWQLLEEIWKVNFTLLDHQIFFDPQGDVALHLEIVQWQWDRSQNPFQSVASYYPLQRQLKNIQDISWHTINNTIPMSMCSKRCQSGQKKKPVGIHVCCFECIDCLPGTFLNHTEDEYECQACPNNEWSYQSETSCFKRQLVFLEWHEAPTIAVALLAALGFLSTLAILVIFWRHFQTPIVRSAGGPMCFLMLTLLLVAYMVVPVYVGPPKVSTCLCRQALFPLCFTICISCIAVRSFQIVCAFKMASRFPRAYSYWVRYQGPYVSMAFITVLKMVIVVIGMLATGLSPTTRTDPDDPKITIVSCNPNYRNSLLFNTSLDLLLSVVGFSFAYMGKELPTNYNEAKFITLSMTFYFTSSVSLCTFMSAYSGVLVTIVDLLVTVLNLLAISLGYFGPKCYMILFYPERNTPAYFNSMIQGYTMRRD
T1 sequence (Q7RTX0 21-852): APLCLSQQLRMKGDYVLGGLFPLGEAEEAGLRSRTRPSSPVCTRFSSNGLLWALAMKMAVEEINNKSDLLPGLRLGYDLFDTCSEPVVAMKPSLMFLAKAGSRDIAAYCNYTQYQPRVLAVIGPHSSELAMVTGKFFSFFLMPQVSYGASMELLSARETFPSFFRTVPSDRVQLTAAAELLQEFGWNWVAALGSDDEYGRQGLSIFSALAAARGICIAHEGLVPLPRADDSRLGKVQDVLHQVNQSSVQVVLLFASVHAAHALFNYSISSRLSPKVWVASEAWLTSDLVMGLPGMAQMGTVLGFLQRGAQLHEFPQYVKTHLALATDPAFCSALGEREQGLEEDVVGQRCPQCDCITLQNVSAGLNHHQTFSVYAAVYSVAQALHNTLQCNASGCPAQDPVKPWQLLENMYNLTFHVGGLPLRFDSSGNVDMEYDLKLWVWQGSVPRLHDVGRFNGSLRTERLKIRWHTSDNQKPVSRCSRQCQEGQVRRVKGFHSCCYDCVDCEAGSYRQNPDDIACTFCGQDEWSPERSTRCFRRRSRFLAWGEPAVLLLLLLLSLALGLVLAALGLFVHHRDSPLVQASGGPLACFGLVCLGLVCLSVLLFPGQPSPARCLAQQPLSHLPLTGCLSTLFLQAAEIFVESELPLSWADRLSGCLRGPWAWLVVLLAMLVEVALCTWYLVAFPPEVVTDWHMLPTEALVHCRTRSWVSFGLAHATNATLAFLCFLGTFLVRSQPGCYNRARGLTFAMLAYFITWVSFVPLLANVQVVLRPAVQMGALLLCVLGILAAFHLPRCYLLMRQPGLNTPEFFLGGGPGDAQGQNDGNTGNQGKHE
Assay: Calcium flux assay, cells endogenously expressing at least one sweet receptor subunit
Format: cell-based
Details: 15 mM fructose
Procedure: Populations of cells each resulting from the expansion of single isolated cells then were characterized for their ability to respond to a sweet ligand using functional cell-based assays. 15 mM fructose was used in these experiments. Depending on the cell type, different conditions were used as described below.
Forty-eight hours prior to assay, cells were seeded in growth media (L15 media (Sigma #L5520) supplemented with 10% serum (Sigma #SAC1203C), 4 mM L-Glutamine (Sigma G7513), 10 mM HEPES (Sigma H0887), and a […] of penicillin/streptomycin solution (final concentration 100 units penicillin/100 μG streptomycin per mL) (Sigma # P4458) at a high density, from 12 to 20 million cells, in 10 cm dishes. Cells were dissociated from the culture matrix and were seeded at 35,000 cells per well 24 hours prior to assay in 384 well plates. Media was removed after 18 to 24 hours. A calcium-sensitive fluorescent dye (Fluo-4, Invitrogen) diluted in sweet assay buffer (130 mM NaCl, 1.1mMKH2PO4, 1.3 mM CaCl, 20 mM HEPES and 3mMNaHPO4*7H20) was added then to each well. Cells were incubated in this media for 1 hour. Plates then were loaded on a high throughput plate reader (Hamamatsu FDSS). […] Calcium flux or assay response was detected prior to, during and following addition of sweet assay buffer containing fructose to each well for a final concentration of 15 mM fructose. […]
Alternatively, cells were dissociated from the culture matrix and were seeded at cell densities from 2,500 to 20,000 per well for 24 or 48 hours prior to assay in Eagle's Minimal Essential Media (Sigma #D5650) containing 10% FBS (Sigma #2442), 2 mM L-Glutamine (Sigma #G7513) and 1 mM Sodium Pyruvate (Sigma #S8636) or a mixture of equal parts of this media and L-15 media (Sigma, L5520) in a 384 well plate. […] Plates then were loaded on a high throughput plate reader (Hamamatsu FDSS). […] Calcium flux or assay response was detected prior to, during and following addition of sweet assay buffer containing fructose to each well for a final concentration of 15 mM fructose. […]

Measured: response in calcium flux reporter assay

O=C(CO)[C@@H](O)[C@H](O)[C@H](O)CO [fructose]
responding to fructose: 293T cells, FIG. 28C | H716 cells, FIG. 28B | HuTu cells, FIG. 28A
